# Reference: patent US20240245677A1, “SELECTED COMPOUNDS FOR TARGETED DEGRADATION OF BRD9” (C4 THERAPEUTICS, INC., priority 2021, published 2024)
# Read-outs that look alike come from different tables or passages of the source.
# Experiments:
# BRD7 = biological target: T1, BRD7 (Homo sapiens, UniProt Q9NPI1); test: BRD7 HiBiT degradation assay in HEK293T.167 cells; format: cell-based
# T1 construct: endogenously expressing BRD7 with HiBiT fusion tag via CRISPR; host or cells: HEK293T.167 (293T.167, BRD7-HiBiT HEK293, LgBiT by lentivirus)
# T1 sequence (Q9NPI1 1-651): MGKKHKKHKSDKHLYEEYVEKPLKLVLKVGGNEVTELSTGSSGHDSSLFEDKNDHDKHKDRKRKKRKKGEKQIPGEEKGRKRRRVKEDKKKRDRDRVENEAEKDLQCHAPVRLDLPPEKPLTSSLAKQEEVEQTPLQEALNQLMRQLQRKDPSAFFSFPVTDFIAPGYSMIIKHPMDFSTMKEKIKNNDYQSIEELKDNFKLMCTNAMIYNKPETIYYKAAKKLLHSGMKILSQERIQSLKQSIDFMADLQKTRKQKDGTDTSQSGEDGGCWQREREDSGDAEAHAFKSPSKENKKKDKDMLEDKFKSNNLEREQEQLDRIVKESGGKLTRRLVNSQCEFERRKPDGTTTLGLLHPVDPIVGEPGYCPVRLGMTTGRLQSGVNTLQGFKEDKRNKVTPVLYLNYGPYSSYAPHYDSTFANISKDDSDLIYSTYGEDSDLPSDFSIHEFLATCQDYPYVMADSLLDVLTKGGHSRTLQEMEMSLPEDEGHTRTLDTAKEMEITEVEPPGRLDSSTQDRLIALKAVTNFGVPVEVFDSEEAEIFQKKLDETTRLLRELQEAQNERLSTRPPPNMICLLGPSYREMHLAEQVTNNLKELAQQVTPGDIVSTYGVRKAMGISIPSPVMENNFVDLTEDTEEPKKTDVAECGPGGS
# SALL4 = biological target: T2, SALL4 (Homo sapiens, UniProt Q96SW2+Q9UJQ4); test: SALL4 HiBiT degradation assay in KELLY.2 cells; format: cell-based
# T2 construct: CRISPR-edited to endogenously express HiBiT tagged SALL4; host or cells: KELLY.2
# Source text: Nano-Glo® HiBiT Lytic Assay System was purchased from Promega (Catalog No. N3050, Madison, WI, USA). […] The HiBiT polypeptide tag was introduced into the C-terminus of the endogenous SALL4 locus by CRISPR-Cas9 to produce the modified KELLY.2 cell line. The HiBiT polypeptide allows reconstitution of NanoBiT enzyme following cell lysis and addition of the complementing LgBiT polypeptide that activates substrate to produce a luminescent signal that is directly proportional to the amount of HiBiT-tagged SALL4.
# KELLY.2 cells were routinely sub-cultured to maintain cell density between 30-80% confluence, not to exceed 10 passages. Cells were washed with PBS, trypsinized for 5 minutes at 37° C., and resuspended in fresh growth media without phenol red. […] Cell concentration was adjusted with growth media without phenol red to 2×10^5 cells/mL.
# 30 nL DMSO was transferred to all control wells.
# 30 μL of media was dispensed to column 24 as background positive control (P). Plates were spun briefly at 1000 rpm and cells were incubated at 37° C., 5% CO2 for 6 hours. Final concentration of DMSO was 0.1% for all samples.
# Cellular SALL4 protein level was determined based on quantification of HiBiT using Nano-Glo® HiBiT Lytic Assay System (Promega). […] Cells treated in the absence of the test compound (0.1% DMSO vehicle) were the negative control (N) and wells containing only media were the positive control (P).
# Percent response of compound-treated samples (T) were calculated by normalizing to the DMSO treated negative (N) controls on the same microtiter plate after background (i.e., positive control) signal subtraction:
# Curve fit and DC50 (concentration that degrades 50% SALL4) determination was performed by 4 parametric logistic fit analysis using software such as GraphPad Prism software (GraphPad Software, LLC, San Diego, CA, USA). The fit was performed through minimization of the root mean squared error between observed and calculated values of the four-parameter logistic equation using the simplex optimizer of the Apache Commons Math library. […] DC50 values were computed as the concentrations where the fitted curves cross the 50% response level. Averages and standard deviations were computed from replicates of the experiment.
# [1] = test system: HSSYII synovial sarcoma cell line; test: Global proteomics in HSSYII cells; format: cell-based, human; conditions: 100 nM, 4 hours
# Protocol: Global protein expression was performed in Yamato-SS and HSSYII synovial sarcoma cell lines after 4-hour treatment with Compound 1 (100 nM). The Yamato-SS cell line was provided by the RIKEN BRC through the National BioResource Project of the MEXT/AMED, Japan (cat #RCB3577), and the HS-SY-II cell line was provided by the RIKEN BRC through the National BioResource Project of the MEXT/AMED, Japan (cat #RCB2231).
# Both Yamato-SS and HSSYII cell lines were treated with Compound 1 at 100 nM for 4 hours and analyzed by multiplexed quantitative proteomics. The x-axis illustrates the totality of the proteomics data and is labeled as fold change (FC) of Compound 1 vs vehicle in a Log 2 transformation scale. The statistical significance (T-test of treated vs. DMSO with Benjamini-Hochberg correction applied) of the observed changes is shown in the y-axis as negative Log 10 of the P-value. The horizontal dashed line marks the statistical significance (P-value ≤0.001) and the vertical line marks fold change ≥2.
# T2 sequence (Q9UJQ4 whole entry): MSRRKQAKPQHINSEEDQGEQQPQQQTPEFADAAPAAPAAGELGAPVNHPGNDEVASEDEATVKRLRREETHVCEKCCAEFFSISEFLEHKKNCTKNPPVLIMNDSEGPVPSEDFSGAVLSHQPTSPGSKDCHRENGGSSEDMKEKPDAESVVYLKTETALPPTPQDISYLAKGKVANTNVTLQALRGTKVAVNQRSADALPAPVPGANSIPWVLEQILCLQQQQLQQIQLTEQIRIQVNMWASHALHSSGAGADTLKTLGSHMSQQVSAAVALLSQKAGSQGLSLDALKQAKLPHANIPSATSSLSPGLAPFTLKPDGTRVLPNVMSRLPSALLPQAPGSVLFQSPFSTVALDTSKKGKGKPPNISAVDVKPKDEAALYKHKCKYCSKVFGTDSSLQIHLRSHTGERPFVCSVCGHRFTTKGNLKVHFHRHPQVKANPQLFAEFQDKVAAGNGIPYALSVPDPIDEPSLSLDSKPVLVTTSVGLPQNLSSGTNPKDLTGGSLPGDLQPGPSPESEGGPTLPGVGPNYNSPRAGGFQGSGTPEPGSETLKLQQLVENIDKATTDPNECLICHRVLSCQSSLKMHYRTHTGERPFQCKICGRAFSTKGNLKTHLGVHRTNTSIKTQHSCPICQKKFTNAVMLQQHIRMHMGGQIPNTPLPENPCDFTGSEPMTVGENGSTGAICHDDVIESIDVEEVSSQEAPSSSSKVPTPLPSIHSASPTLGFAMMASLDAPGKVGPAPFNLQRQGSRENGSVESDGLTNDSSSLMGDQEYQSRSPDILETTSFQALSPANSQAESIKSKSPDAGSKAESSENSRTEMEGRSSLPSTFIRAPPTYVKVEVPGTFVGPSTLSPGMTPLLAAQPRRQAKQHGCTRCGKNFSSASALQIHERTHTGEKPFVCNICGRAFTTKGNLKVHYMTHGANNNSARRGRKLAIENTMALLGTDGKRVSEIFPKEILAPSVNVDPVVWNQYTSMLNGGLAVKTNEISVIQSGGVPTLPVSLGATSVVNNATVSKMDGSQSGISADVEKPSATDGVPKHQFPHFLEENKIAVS
# T2 sequence (Q96SW2 whole entry): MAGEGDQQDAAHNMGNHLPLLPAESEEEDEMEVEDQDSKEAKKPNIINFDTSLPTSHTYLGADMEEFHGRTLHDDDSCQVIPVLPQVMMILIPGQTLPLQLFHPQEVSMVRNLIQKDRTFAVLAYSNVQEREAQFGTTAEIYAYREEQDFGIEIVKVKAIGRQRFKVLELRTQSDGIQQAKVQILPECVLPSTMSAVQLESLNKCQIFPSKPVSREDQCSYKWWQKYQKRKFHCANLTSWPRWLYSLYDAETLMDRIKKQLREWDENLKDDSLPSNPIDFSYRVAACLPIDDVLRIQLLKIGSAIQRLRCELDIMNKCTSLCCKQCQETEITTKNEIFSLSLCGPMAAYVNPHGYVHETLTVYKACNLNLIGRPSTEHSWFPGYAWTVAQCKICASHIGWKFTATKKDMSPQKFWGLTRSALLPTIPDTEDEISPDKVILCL
# T2 sequence (Q16531 2-1140 partner limits assumed): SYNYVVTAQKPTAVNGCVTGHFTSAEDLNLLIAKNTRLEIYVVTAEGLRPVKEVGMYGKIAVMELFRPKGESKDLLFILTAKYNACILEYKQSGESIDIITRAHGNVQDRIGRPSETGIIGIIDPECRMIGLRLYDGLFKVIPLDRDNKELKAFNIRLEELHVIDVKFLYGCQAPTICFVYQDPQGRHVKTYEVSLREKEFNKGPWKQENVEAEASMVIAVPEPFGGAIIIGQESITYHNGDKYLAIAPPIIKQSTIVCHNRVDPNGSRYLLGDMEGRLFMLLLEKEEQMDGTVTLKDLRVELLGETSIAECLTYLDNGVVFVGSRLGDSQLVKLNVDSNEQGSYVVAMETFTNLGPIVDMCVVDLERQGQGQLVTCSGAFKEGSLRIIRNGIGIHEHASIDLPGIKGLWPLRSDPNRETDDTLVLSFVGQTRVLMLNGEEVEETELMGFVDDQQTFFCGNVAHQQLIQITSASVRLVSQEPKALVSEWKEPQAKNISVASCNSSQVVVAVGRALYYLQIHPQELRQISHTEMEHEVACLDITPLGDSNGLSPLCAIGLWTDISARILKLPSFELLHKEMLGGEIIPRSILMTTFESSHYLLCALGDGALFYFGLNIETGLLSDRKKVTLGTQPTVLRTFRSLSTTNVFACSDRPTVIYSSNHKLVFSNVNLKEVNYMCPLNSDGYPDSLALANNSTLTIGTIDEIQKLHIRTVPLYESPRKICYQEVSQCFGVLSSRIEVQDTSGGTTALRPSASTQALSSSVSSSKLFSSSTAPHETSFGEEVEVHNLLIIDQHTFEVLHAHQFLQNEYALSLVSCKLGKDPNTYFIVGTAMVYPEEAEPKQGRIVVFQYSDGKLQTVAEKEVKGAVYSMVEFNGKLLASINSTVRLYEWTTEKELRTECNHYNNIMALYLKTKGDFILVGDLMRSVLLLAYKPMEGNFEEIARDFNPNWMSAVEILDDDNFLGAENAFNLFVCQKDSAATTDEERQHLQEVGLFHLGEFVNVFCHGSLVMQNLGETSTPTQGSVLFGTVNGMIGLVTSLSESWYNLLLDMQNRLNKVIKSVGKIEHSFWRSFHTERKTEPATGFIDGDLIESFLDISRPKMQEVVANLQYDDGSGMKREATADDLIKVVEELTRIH
smiles,measurement,setting,value
"COc1cc(-c2cn(C)c(=O)c(C)c2C)cc(OC)c1CN1CC[C@H](N2CCN(c3ccc(N[C@H]4CCC(=O)NC4=O)cc3F)CC2)C(F)(F)C1 [Compound 1, (S)-3-((4-(4-((S)-1-(2,6-dimethoxy-4-(1,4,5-trimethyl-6-oxo-1,6-dihydropyridin-3-yl)benzyl)-3,3-difluoropiperidin-4-yl)piperazin-1-yl)-3-fluorophenyl)amino)-piperidine-2,6-dione]","% BRD7 Remaining Relative to Vehicle Control at 24 hr, Mean",BRD7; 0.101 nM,99.8%
same,"% BRD7 Remaining Relative to Vehicle Control at 24 hr, Mean",BRD7; 0.318 nM,101.3%
same,"% BRD7 Remaining Relative to Vehicle Control at 24 hr, Mean",BRD7; 1.01 nM,101.0%
same,"% BRD7 Remaining Relative to Vehicle Control at 24 hr, Mean",BRD7; 3.17 nM,99.8%
same,"% BRD7 Remaining Relative to Vehicle Control at 24 hr, Mean",BRD7; 10.0 nM,102.4%
same,"% BRD7 Remaining Relative to Vehicle Control at 24 hr, Mean",BRD7; 31.7 nM,103.4%
same,"% BRD7 Remaining Relative to Vehicle Control at 24 hr, Mean",BRD7; 100 nM,101.0%
same,"% BRD7 Remaining Relative to Vehicle Control at 24 hr, Mean",BRD7; 317 nM,102.3%
same,"% BRD7 Remaining Relative to Vehicle Control at 24 hr, Mean",BRD7; 1000 nM,106.3%
same,"% BRD7 Remaining Relative to Vehicle Control at 24 hr, Mean",BRD7; 3161 nM,117.4%
same,"% BRD7 Remaining Relative to Vehicle Control at 24 hr, Mean",BRD7; 9990 nM,143.3%
same,DC50,"BRD7; BRD7-HiBiT, 293T.167 cells, 24 hours, read-out: Mean DC50",> 10 µM
same,Emax,"BRD7; BRD7-HiBiT, 293T.167 cells, 24 hours, read-out: Mean Emax (%) ± SD",97.6 ± 6.41%
same,effect on the degradation of BRD7,"BRD7; concentrations up to 10 μM, 24 hours",no significant effect
same,DC50,"BRD7; summary statement, read-out: DC50 against BRD7",> 1 µM
same,"% SALL4 Remaining Relative to Vehicle Control at 6 hr, Mean",SALL4; 0.101 nM,103.8%
same,"% SALL4 Remaining Relative to Vehicle Control at 6 hr, Mean",SALL4; 0.318 nM,104.1%
same,"% SALL4 Remaining Relative to Vehicle Control at 6 hr, Mean",SALL4; 1.01 nM,104.1%
same,"% SALL4 Remaining Relative to Vehicle Control at 6 hr, Mean",SALL4; 3.17 nM,103.7%
same,"% SALL4 Remaining Relative to Vehicle Control at 6 hr, Mean",SALL4; 10.0 nM,106.5%
same,"% SALL4 Remaining Relative to Vehicle Control at 6 hr, Mean",SALL4; 31.7 nM,106.1%
same,"% SALL4 Remaining Relative to Vehicle Control at 6 hr, Mean",SALL4; 100 nM,104.2%
same,"% SALL4 Remaining Relative to Vehicle Control at 6 hr, Mean",SALL4; 317 nM,105.0%
same,"% SALL4 Remaining Relative to Vehicle Control at 6 hr, Mean",SALL4; 1000 nM,104.0%
same,"% SALL4 Remaining Relative to Vehicle Control at 6 hr, Mean",SALL4; 3161 nM,104.4%
same,"% SALL4 Remaining Relative to Vehicle Control at 6 hr, Mean",SALL4; 9990 nM,96.6%
same,Emax,"SALL4; SALL4-HiBiT, KELLY.2 cells, 6 hours, read-out: Mean Emax (%) ± SD",98.9 ± 2.1%
same,effect on degradation of SALL4,"SALL4; concentrations up to 10 μM, 6 hours",no significant effect
same,BRD9 protein level decrease vs DMSO control,[1],66.7%
same,Emax at 0.1 µM,"[1]; Homo sapiens, read-out: BRD9 Emax",33.3%
